The text below walks through data of ChEMBL document CHEMBL2176976, “Ethylenediamine diacetate (EDDA) mediated synthesis of aurones under ultrasound: their evaluation as inhibitors of SIRT1” (Bioorg Med Chem Lett, 2012).

In one test the test system is MCF7. Nature of the test: Cytotoxicity against human MCF7 cells assessed as growth inhibition at 10 uM after 24 hrs by MTT assay (reference value: 0.15 %). Type of test: functional. The settings on record: MCF7, 24 h, read-out: GI. On the technique in general: Tetrazolium assays rely on reduction of a dye to a coloured formazan, in cell work by metabolically active cells.

The test system of another test is MDA-MB-231. Nature of the test: Cytotoxicity against human MDA-MB-231 cells assessed as growth inhibition at 10 uM after 24 hrs by MTT assay (reference value: 0.23 %). Type of test: functional. Particulars: MDA-MB-231, 24 h, read-out: GI.
For test [1], the target named is T1, NAD-dependent protein deacetylase sirtuin-1 (Homo sapiens) (UniProt Q96EB6).
T1 sequence (whole entry): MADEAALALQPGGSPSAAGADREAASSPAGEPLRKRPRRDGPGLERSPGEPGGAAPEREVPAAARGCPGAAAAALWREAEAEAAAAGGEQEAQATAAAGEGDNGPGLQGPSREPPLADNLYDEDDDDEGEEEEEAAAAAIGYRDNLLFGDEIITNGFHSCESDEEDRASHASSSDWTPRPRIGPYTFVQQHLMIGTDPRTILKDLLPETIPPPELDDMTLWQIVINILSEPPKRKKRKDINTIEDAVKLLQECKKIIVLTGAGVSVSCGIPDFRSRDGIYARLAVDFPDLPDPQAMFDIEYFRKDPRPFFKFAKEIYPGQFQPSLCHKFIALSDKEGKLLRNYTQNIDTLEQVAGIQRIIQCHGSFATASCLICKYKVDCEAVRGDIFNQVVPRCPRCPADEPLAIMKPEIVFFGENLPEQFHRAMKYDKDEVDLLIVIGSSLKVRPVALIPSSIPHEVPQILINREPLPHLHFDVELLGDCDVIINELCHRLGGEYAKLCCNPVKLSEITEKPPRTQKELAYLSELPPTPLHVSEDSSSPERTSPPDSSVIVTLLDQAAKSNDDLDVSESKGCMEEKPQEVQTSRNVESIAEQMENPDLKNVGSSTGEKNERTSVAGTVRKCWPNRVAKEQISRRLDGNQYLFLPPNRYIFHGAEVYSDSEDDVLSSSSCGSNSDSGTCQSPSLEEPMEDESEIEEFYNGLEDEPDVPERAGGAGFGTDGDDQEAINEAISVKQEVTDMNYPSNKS
Nature of the test: Inhibition of full length recombinant human SIRT1 expressed in Escherichia coli BL21 (DE3) PLysS using Fluor-de-Lys as substrate at 10 uM by fluorimetric assay.

The target of test [2] is T2, NAD-dependent protein deacetylase sirtuin-2 (Homo sapiens, UniProt Q8IXJ6).
T2 sequence (Q8IXJ6 whole entry): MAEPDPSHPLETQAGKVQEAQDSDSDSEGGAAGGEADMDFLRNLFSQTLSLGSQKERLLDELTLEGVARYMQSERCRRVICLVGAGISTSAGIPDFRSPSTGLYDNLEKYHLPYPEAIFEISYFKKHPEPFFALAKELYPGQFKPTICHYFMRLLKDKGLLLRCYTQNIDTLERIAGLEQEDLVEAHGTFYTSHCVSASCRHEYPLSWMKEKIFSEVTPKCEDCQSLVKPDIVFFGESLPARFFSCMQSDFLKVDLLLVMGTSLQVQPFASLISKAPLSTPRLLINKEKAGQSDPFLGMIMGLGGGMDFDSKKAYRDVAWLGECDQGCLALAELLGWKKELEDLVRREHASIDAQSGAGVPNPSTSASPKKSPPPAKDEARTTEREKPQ
Nature of the test: Inhibition of human SIRT2.

pIC50: −log10 of the molar value.

As to `O=C1/C(=C/c2ccc(F)cc2)Oc2ccccc21`, the inhibition of growth at 10 µM with MCF7 came out at 20.1%; in the test on MDA-MB-231, 16.5%. Moreover, the inhibition in test [1] was found to be 50.5%.

Take `O=C1/C(=C/c2ccc(Br)cc2)Oc2ccccc21`: the inhibition of growth at 10 µM is 34.5% in the test on MCF7 and 30.8% with MDA-MB-231. Also, the inhibition in test [1] came to 71%.

In the case of `COc1ccc(/C=C2\Oc3ccccc3C2=O)cc1` [4'-METHOXY-AURONE], the inhibition of growth at 10 µM was 29.6% in the test with MCF7 and 18.1% in the test with MDA-MB-231. Moreover, the inhibition in test [1] came out at 32.5%.

For the compound `Cc1ccc(C(=O)Nc2ccc(S(=O)(=O)O)c3cc(S(=O)(=O)O)cc(S(=O)(=O)O)c23)cc1NC(=O)c1cccc(NC(=O)Nc2cccc(C(=O)Nc3cc(C(=O)Nc4ccc(S(=O)(=O)O)c5cc(S(=O)(=O)O)cc(S(=O)(=O)O)c45)ccc3C)c2)c1` [SURAMIN], the inhibition of growth at 10 µM in the test on MCF7 turned out to be 32%; with MDA-MB-231, 26%.

`O=C1NC(=S)NC(=O)C1=Cc1cccc2ccccc12` showed a pIC50 in test [2] of 5.00.

What is called inhibition is the change of the read-out against control, counted positive when it falls. As usually defined, the pIC50 is the negative decadic logarithm of the IC50, by convention in mol/L. Low readings indicate a high IC50, high ones a low IC50.
